The results in this text go back to patent US12729381B2, “Methods and compositions for inactivating interleukin-2-inducible t-cell kinase (ITK)” (priority 2020, dated 2026).

The test concerns GVHD and B-ALL-luc tumor cells. The test is described as follows: Allo-HSCT GVHD/GVL model with donor T cells transduced with SLP76pTYR-pCherry virus. The format is in vivo, BALB/c mice. The following applies: murine allo-HSCT major mismatch model. As to the method: GVHD and GVL studies: Recipient BALB/c mice (MHC haplotype d) as recipients were lethally irradiated with 800 cGy total in two split doses of 400cGy. Bone marrow cells were harvested from mouse legs, and total bone marrow cells were incubated with CD90.2 beads, using 100 ul of beads per mouse according to manufacturer protocols. NK cells were depleted and by DX5 beads, and CD122+ cells with anti PE beads. Recipient mice were injected intravenously with 10×10^6 T cell-depleted bone marrow (TCDBM) cells, with or without donor T cells, either 1×10^6 or 2×10^6 FACS-sorted CD8^+, CD4^+ T cells, or CD8^+ and CD4^+ cells mixed at a 1:1 ratio from WT or SLP76 Y145FKI mice. For GVL experiments, primary B cell acute lymphoblastic leukemia (B-ALL, syngeneic to BALB/c and allogeneic to C57BI/6) blasts were transduced with luciferase as described previously (Cheng et al., 2016), and 2×10^5 luciferase-expressing B-ALL-luc cells were used per recipient mouse unless otherwise specified. […] The bioluminescence data were analyzed and quantified with Living Image Software (Xenogen) and Igor Pro (Wave Metrics, Lake Oswego, OR). Recipient animals were evaluated for clinical score 2-3 times per week by a scoring system that sums changes in 6 clinical parameters: (1) weight loss, (2) posture, (3) activity, (4) fur texture, (5) diarrhea and (6) skin integrity (Cooke et al., 1996). […]

Non-standard residues stand in square brackets, D forms with d. No end group written: not given here. *: point of attachment. FITC = O=C1OC2(c3ccc(O)cc3Oc3cc(O)ccc32)c2ccc(NC(=S)*)cc21; pY = N[C@@H](Cc1ccc(OP(=O)(O)O)cc1)C(=O)O

Turning to “FITC Dye ^132NEEEEAPVEDDADpYEPPPSNDEEA^155-TAT ({FITC}-NEEEEAPVEDDAD[pY]EPPPSNDEEAGRKKRRQRRRPQ) [SLP76pTYR]”, the “GVHD and GVL outcome (summary statement)” value is “tumor clearance without inducing GVHD”. The “GVHD and GVL outcome (summary statement)” value (listed as SLP76145pTYR) is listed as “significantly reduced GVHD pathophysiology but maintained GVL function”.
